Source: patent US12528774B2, “Thiosemicarbazone compounds and uses thereof” (The Regents of the University of California, priority 2019, dated 2026)

How the values were obtained:
[1] = tested on: normal human epithelial cell line HPDE; assay: Proliferation assay in normal epithelial cell line HPDE; type: cell-based
Experimental: Serum copper levels are elevated (>20 μM) in individuals with solid tumor types such as pancreatic ductal adenocarcinoma (PDAC), small cell lung carcinoma (SCLC), and prostate cancer (PC). (Refs. 43-48). These cancers rely upon elevated copper levels to sustain growth, making this transition metal a viable target for therapeutic modulation. (Ref 34).
Proliferation assay: Cells were plated in 384-well plates (500 cells/well for adherent cell lines in 30 μl volume). Drugs were serially diluted to the desired concentrations and an equivalent volume of DMSO was added to vehicle control. Following 72 h incubation, ATP content was measured using CellTiter-Glo reagent according to manufacturer's instructions (Promega, CellTiter-Glo Luminescent Cell Viability Assay), and analyzed by SpectraMax luminometer (Molecular Devices). IC50 and IC90 values, concentrations required to inhibit proliferation by 50% and 90% respectively compared to DMSO treated cells, were calculated using Prism 6.0 h (Graphpad Software).

[2] = tested on: p185BCR-ABL Arf−/− pre-B-ALL cells; assay: In vivo efficacy, systemic p185 pre-B ALL model; parameters: species or system mouse; settings: 1 mg/kg q.d. 8 days; fourteen days after treatment initiation
From the text: FIG. 9A: dose and schedule for the efficacy study in p185 pre-B-ALL mice. FIGS. 9B-9D: bioluminescence images and quantification of whole body radiance of mice treated with HCT-16 (n=5) or vehicle control (n=10). FIG. 9E: dose and schedule for the efficacy study in MV4-11 AML bearing mice. FIGS. 9F-9H: bioluminescence images and quantification of whole body radiance of mice treated with HCT-16 (n=5) or vehicle control (n=5). (mean±SD, n=2, student's paired t-test, * P<0.05; ** P<0.01; *** P<0.001). q.d.=once/day. For purposes of the disclosure, Cu(HCT-13) is the same as compound HCT-16 (i.e., copper complexed with HCT-13).
The in vivo efficacy and tolerability of HCT-13 was investigated. […] Both p185 and MV4-11 cell lines were engineered to express luciferase to monitor the systemic leukemic burden by bioluminescence imaging (BLI). (Boulos et al, Blood 2011, 117(13):3585-3595; Rahmani et al, Cancer Res. 2018, 78(11):3075-3086). To bypass the need for systemic copper supplementation, a one-to-one complex of copper and HCT-13 (i.e., HCT-16) was prepared for in vivo administration according to reported procedures for similar compounds and characterized by UV-HPLC and HR-MS. […]
In vivo leukemia models and treatment regimens. […] The leukemic burden was monitored using bioluminescence imaging. […]

[3] = HCT-13 stock solution (solubilization); type: physicochemical; settings: aqueous with cosolvent or surfactant or cyclodextrin; aqueous 40% captisol with 1% DMSO, heating 50° C., sonication 15 minutes; read-out: concentration solubilized
Experimental: HCT-13 stock solution. HCT-13 was solubilized up to a concentration of 20 mg/mL in an aqueous solution of 40% captisol with 1% DMSO with the aid of heating at 50° C. and sonication for 15 minutes.

CN(C)C(=S)N/N=C/c1nccc2cc(F)ccc12 (mixture of isomers) [HCT13, (E)-2-((6-Fluoroisoquinolin-1-yl)methylene)-N,N-dimethylhydrazine-1-carbothioamide and (Z)-2-((6-Fluoroisoquinolin-1-yl)methylene)-N,N-dimethylhydrazine-1-carbothioamide]
sensitivity of normal cells versus cancer models [1]: markedly more resistant | systemic disease burden versus control group (bioluminescence) [2]: significantly lower systemic disease burden | solubility at 15 min [3]: ≤ 20 mg/mL
